{"source": "patent US20250378953A1", "about": "“ORGAN DIGITAL TWIN SYSTEMS AND METHODS FOR CREATING AND USING SUCH SYSTEMS” (Yale University, priority 2022, published 2025)", "test_system": "porcine kidney", "text": "For the ex vivo normothermic perfusion of kidneys, data pertaining to the hemodynamics of the kidney were collected and monitored: kidney mass, urine output, arterial flow, arterial pressure, pump speed, hematocrit, and arterial oxygen saturation. To accomplish this, ZP-50N digital force gauges by Baoshishan were used to measure kidney mass and urine output; a Medtronic Bio-console device to measure flow, pressure, and pump speed; and a Medtronic Bio-trend device to measure hematocrit and oxygen saturation.\nData collection from these sensors was standardized at a rate of 0.2 Hz (approximately a data point every five seconds) and integrated via an open-source software written in Python. […] The act of collecting data from each sensor simultaneously presented a unique challenge in that a typical computer program is sequential in its execution, meaning that data collection from one sensor should not be able to occur until collection from another sensor is finished. Furthermore, the runtime complexity of the code block associated with each sensor meant that data collection from one sensor could potentially interfere with the collection from another, and vice-versa. To circumvent these issues, the code blocks for each sensor were run in separate threads using the Python threading library. This allowed each code block to be executed simultaneously in parallel (as opposed to sequentially in series), meaning data collection from one sensor was independent of data collection from all other sensors. After the data was extracted, the code block for each sensor transformed the data string by removing superfluous characters and converting the pertinent data into a float format. To upload the transformed data to the Azure cloud database the sys, platform, and pyodbc libraries were used to communicate with the edge device and establish a database connection using an SQL driver.\nThe “Blood gas data upload” feature allows one to manually input data collected from perfusate analysis assays. For our perfusion experiment, CG8+ and Renal Function Panel cartridges were used with iStat and Piccolo devices, respectively; however, the software can easily be modified to accommodate other perfusate assays.\nHistamine was administered at two different time-points during the perfusion.", "note": "Where two headings read alike, the source gives them in different places."}
{"smiles": "NCCc1c[nH]cn1", "note": "[histamine]", "values": [{"measurement": "arterial flow after histamine", "setting": "40 mg histamine on the arterial side at 240 minutes of perfusion", "value": "Flow immediately stopped"}, {"measurement": "arterial flow after histamine", "setting": "100 mg histamine on the arterial side at 90 minutes of perfusion", "value": "immediate halt of flow"}, {"measurement": "time until flow normalized", "setting": "after 40 mg histamine at 240 minutes, pump RPM slowly increased to 1900, no heparin", "value": 30, "unit": "min"}, {"measurement": "time until flow increased and arterial pressure normalized", "setting": "after 100 mg histamine at 90 min, heparin at 120 minute, pump RPM 2000", "value": "≤ 60", "unit": "min"}, {"measurement": "arterial pressure while flow slowly returned", "setting": "after 100 mg histamine at 90 min, 20k units heparin added at 120 minute, pump RPM increased to 2000, starting arterial pressure 15 mmHg", "value": "40-60 mmHg"}, {"measurement": "kidney weight after flow and pressures normalized", "setting": "after first histamine administration, weight before histamine approximately 0.26 Kg", "value": "0.27 to 0.28", "unit": "kg"}, {"measurement": "kidney weight after histamine (manual recordings)", "setting": "after histamine at 90 minutes, weight before approximately 0.26 Kg", "value": "approximately 0.24 Kg"}, {"measurement": "arterial pressure immediately after histamine", "setting": "arterial administration of histamine", "value": "immediately increased"}, {"measurement": "urine production (qualitative observation)", "setting": "first histamine administration at 90 minutes", "value": "initiate after the first histamine administration"}]}
